Assay results reported in patent US10940139B2, “Compounds that interact with the Ras superfamily for the treatment of cancers, inflammatory diseases, rasopathies, and fibrotic disease” (Shy Therapeutics LLC, priority 2017, dated 2021).

Molecular target: KRas G12D/Q61H double mutant (Homo sapiens (Human), UniProt P01116, G12D/Q61H)
Test: Ras GTP binding domain inhibition assay (labeled GTP)
Conditions: 20 μM compound; read-out: % Inhibition at 20 μM KRas G12D Q61H
In short: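 His-tagged KRas protein (3-10 μg/ml) was captured overnight at 4° C on nickel-coated wells in 50 mM Tris pH 7.5, 1 mM MgCl2, 1 mM DTT. Bound labeled GTP was read by fluorescence after washing.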

Chain of KRas G12D/Q61H double mutant (P01116-2 other isoform, or with tags, fused parts or gaps G12D/Q61H): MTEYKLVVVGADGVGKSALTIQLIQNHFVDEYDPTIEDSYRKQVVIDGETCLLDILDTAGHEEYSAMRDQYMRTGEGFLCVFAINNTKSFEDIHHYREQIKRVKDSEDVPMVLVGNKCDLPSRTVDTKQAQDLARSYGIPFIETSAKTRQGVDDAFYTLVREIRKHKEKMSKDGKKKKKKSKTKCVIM

SMILES | inhibition at 20 µM [%]
Nc1nc(O)c2scc(Br)c2n1 [drawing 2657] | 1 to 25
CC1CCN(C(=O)c2csc3c(O)nc(N)nc23)CC1 [drawing 2658] | 1 to 25
COCC1CCN(C(=O)c2csc3c(O)nc(N)nc23)CC1 [drawing 2659] | 1 to 25
CCOCCC1CCN(C(=O)c2csc3c(O)nc(N)nc23)CC1 [drawing 2660] | 1 to 25
COCCCC1CCN(C(=O)c2csc3c(O)nc(N)nc23)CC1 [drawing 2661] | 25 to 50
Nc1nc(O)c2scc(C(=O)N3CCC(N4CCOCC4)CC3)c2n1 [drawing 2662] | 1 to 25
Nc1nc(O)c2scc(C(=O)N3CCC(N4CCCC4=O)CC3)c2n1 [drawing 2663] | 25 to 50
CCOC(=O)NC1CCN(C(=O)c2csc3c(O)nc(N)nc23)CC1 [drawing 2667] | 1 to 25
Nc1nc(O)c2scc(C(=O)N(CCO)CCOCCO)c2n1 [drawing 2669] | 1 to 25

Continued, values first:

inhibition at 20 µM [%] | SMILES
51 to 75 | CS(=O)(=O)c1cccc(C(=O)N2CCCc3c(O)nc(-c4ccccn4)nc32)c1 [drawing 2647]
51 to 75 | COCCCC(=O)N1CCCc2c(O)nc(-c3ccccn3)nc21 [drawing 2648]
25 to 50 | O=C(c1cocn1)N1CCCc2c(O)nc(-c3ccccn3)nc21 [drawing 2649]
51 to 75 | CS(=O)(=O)CCCC(=O)N1CCCc2c(O)nc(-c3ccccn3)nc21 [drawing 2650]
0 | O=S(=O)(CCc1ccccc1)N1CCCc2c(O)nc(-c3ccccn3)nc21 [drawing 2651]
1 to 25 | O=S(=O)(c1ccccc1)N1CCCc2c(O)nc(-c3ccccn3)nc21 [drawing 2652]

Same assay, conditions: 20 μM; read-out: KRas G12D Q61H % Inh.

SMILES | inhibition at 20 µM [%]
O=C(Nc1nnc(-c2ccccn2)[nH]1)C1Cc2cc(Cl)ccc2O1 (stereo not shown) [drawing 2548] | 51 to 75
O=C(Cc1ccc2c(c1)OCO2)Nc1nnc(-c2ccccn2)[nH]1 [drawing 2549] | 51 to 75
O=C(Nc1nnc(-c2ccccn2)[nH]1)c1ccc(Oc2cccnc2)cc1 [drawing 2550] | 51 to 75
O=C(Cc1ccc2c(c1)OCCO2)Nc1nnc(-c2ccccn2)[nH]1 [drawing 2551] | 51 to 75
N#CCc1ccc(OCC(=O)Nc2nnc(-c3ccccn3)[nH]2)cc1 [drawing 2552] | 51 to 75
O=C(Nc1nnc(-c2ccccn2)[nH]1)c1ccc(=O)n(CCOc2ccccc2)n1 [drawing 2553] | 51 to 75
Cc1cccc(OCC(=O)Nc2nnc(-c3ccccn3)[nH]2)c1 [drawing 2555] | 51 to 75
COc1cn(-c2ccccc2)nc1C(=O)Nc1nnc(-c2ccccn2)[nH]1 [drawing 2557] | 76 to 100
O=C(Nc1nnc(-c2ccccn2)[nH]1)c1ccc(=O)[nH]n1 [drawing 2562] | 51 to 75
COc1ccc(COCC(=O)Nc2nnc(-c3ccccn3)[nH]2)cc1 [drawing 2563] | 51 to 75
O=C(COCCOc1ccccc1)Nc1nnc(-c2ccccn2)[nH]1 [drawing 2564] | 76 to 100
O=C(Nc1nc(-c2ccccn2)cs1)C1COc2ccccc2O1 (stereo not shown) [drawing 2566] | 51 to 75
O=c1nc(-c2ccccn2)[nH]c2scc(-c3cccs3)c12 [drawing 2583] | 51 to 75
CNC(=O)c1sc2[nH]c(-c3ccccn3)nc(=O)c2c1C [drawing 2584] | 25 to 50
CCN(CC)C(=O)c1sc2[nH]c(-c3ccccn3)nc(=O)c2c1C [drawing 2589] | 51 to 75
Cc1c(C(=O)N(C)C)sc2[nH]c(-c3ccccn3)nc(=O)c12 [drawing 2590] | 25 to 50
O=c1nc(-c2ccccn2)[nH]c2c1sc1ccccc12 [drawing 2592] | 51 to 75
Cc1ccc(CN(Cc2ccco2)C(=O)c2oc3ccccc3c2C)cc1 [drawing 2614] | 51 to 75
Cc1ccc(O)c(CN(C)Cc2nccn2Cc2ccccc2)n1 [drawing 2615] | 51 to 75

SMILES | inhibition at 20 µM [%]
FC(F)(F)Sc1ccc(Cc2ccc(SC(F)(F)F)cc2)cc1 [drawing 2616] | 51 to 75
CCCCSc1nc(-c2cccs2)c(C(=O)C(F)(F)F)cc1C#N [drawing 2618] | 51 to 75
CCC(C)(C)c1ccc(OCCCC(=O)NC(C(=O)OC)C(C)C)c(C(C)(C)CC)c1 (stereo not shown) [drawing 2619] | 25 to 50
Oc1ccc(C2(c3cccc(Cl)c3)CCCC2)cc1 [drawing 2620] | 25 to 50
Cc1ccc(-c2ccc(Oc3ccc(C(F)(F)F)cn3)c(C)c2)cc1 [drawing 2621] | 51 to 75
CCOc1cc(C(=O)Oc2c(C)ccc(C)c2C)cc(OCC)c1OCC [drawing 2622] | 51 to 75
COC(=O)c1ccc(C(=O)NCC2(c3ccccc3OC)CCCC2)nc1 [drawing 2623] | 25 to 50
CCOc1cc(S(=O)(=O)N(Cc2ccccc2)Cc2ccccc2)c(OCC)cc1C [drawing 2624] | 25 to 50
COc1ccc(CN(CC[S+]([O-])c2cc(Cl)ccc2Cl)C2CC2)cc1 (stereo not shown) [drawing 2625] | 25 to 50
CCCOc1ccc2ccccc2c1CN(C)S(=O)(=O)N1CC(C)OC(C)C1 (stereo not shown) [drawing 2626] | 25 to 50
O=S(=O)(Oc1cc(C(F)(F)F)cc(C(F)(F)F)c1)N1CCc2ccccc2C1 [drawing 2627] | 51 to 75
COC(=O)C(C)CN(Cc1cc(Br)ccc1[N+](=O)[O-])C1CC1 (stereo not shown) [drawing 2629] | 25 to 50
CC(C1CC1)N(CC(F)(F)F)C(=O)Cc1ccc(-c2ccccc2)cc1 (stereo not shown) [drawing 2630] | 51 to 75
COC(=O)C(C)CN(Cc1ccccc1)c1nc(C(F)(F)F)ccc1C#N (stereo not shown) [drawing 2631] | 25 to 50
N#CC1(c2ccc(C(=O)N3CCCC3CO)cc2)CC1 (stereo not shown) [drawing 2632] | 76 to 100
CCN(CC)S(=O)(=O)c1ccc(NCCOC)c(C(=O)NCCSCc2ccc(C)cc2)c1 [drawing 2633] | 25 to 50
CSc1nc(C2CC2)cc(C(=O)NCCc2ccc(S(=O)(=O)NC(=O)c3cc(C4CC4)nc(SC)c3C#N)cc2)c1C#N [drawing 2634] | 51 to 75
CC(C)C1=C(O)C2(CC2c2ccc(-c3ccccc3)cc2)C(C)CC1 (stereo not shown) [drawing 2635] | 25 to 50
Cc1cccc(C)c1OCCOC(=O)c1ccccc1SCCOc1c(C)cccc1C [drawing 2636] | 51 to 75

Now from value to molecule:

inhibition at 20 µM [%] | SMILES
51 to 75 | O=C(Nc1nnc(-c2ccccn2)[nH]1)C1CCN(C(=O)c2cccs2)CC1 [drawing 2556]
76 to 100 | CN(CC(=O)Nc1nnc(-c2ccccn2)[nH]1)S(=O)(=O)c1ccccc1 [drawing 2558]
51 to 75 | O=C(Cn1c(=O)cnc2ccccc21)Nc1nc(-c2ccccn2)cs1 [drawing 2569]
51 to 75 | O=C(Nc1nc(-c2ccccn2)cs1)c1ccc2nccnc2c1 [drawing 2570]
51 to 75 | O=C(Nc1nc(-c2ccccn2)cs1)c1ccc2[nH]cnc2c1 [drawing 2571]
25 to 50 | O=C(Cn1cnc2ccccc2c1=O)Nc1nc(-c2ccccn2)cs1 [drawing 2574]
51 to 75 | O=C(Nc1nc(-c2ccccn2)cs1)C1CC(=O)N(c2ccc3c(c2)OCCO3)C1 (stereo not shown) [drawing 2575]
25 to 50 | O=C(Cc1cccc(F)c1)Nc1nc(-c2ccccn2)cs1 [drawing 2577]
51 to 75 | O=C(Nc1nc(-c2ccccn2)cs1)c1ccc(F)cc1 [drawing 2579]
51 to 75 | COc1ccc(-c2csc3[nH]c(-c4ccccn4)nc(=O)c23)cc1 [drawing 2582]
51 to 75 | Cc1sc2[nH]c(-c3ccccn3)nc(=O)c2c1-c1ccccc1 [drawing 2586]
51 to 75 | O=c1nc(-c2ccccn2)[nH]c2sc(-c3ccccc3)cc12 [drawing 2588]
51 to 75 | COc1ccc(NC(=O)CCc2c(C)nc(-c3ccccn3)nc2O)cn1 [drawing 2594]
25 to 50 | Cc1nc(-c2ccccn2)nc(O)c1CCC(=O)NCCc1cccs1 [drawing 2595]
51 to 75 | Cc1nc(-c2ccccn2)nc(O)c1CCC(=O)Nc1cc(F)ccc1F [drawing 2596]
25 to 50 | Cc1nc(-c2ccccn2)nc(O)c1CCC(=O)NC1CCc2ccccc21 (stereo not shown) [drawing 2597]
51 to 75 | Cc1nc(-c2ccccn2)nc(O)c1CCC(=O)Nc1ccc(C(C)C)cc1 [drawing 2598]
25 to 50 | Cc1nc(-c2ccccn2)nc(O)c1CCC(=O)NCC1COc2ccccc2O1 (stereo not shown) [drawing 2599]
51 to 75 | COC(=O)c1cc(NC(=O)CCc2c(C)nc(-c3ccccn3)nc2O)ccc1Cl [drawing 2600]
25 to 50 | Cc1nc(-c2ccccn2)nc(O)c1CCC(=O)Nc1cccc(OCC(=O)N2CCCC2)c1 [drawing 2601]
51 to 75 | CCN(CC)S(=O)(=O)c1cc(C)c(C)c(NC(=O)CCc2c(C)nc(-c3ccccn3)nc2O)c1 [drawing 2602]
51 to 75 | CCc1cc(NNC(=O)c2ccc(C#N)cc2)nc(-c2ccccn2)n1 [drawing 2605]
51 to 75 | COCCCn1ccc(Nc2cc(C)nc(-c3ccccn3)n2)n1 [drawing 2606]
25 to 50 | Oc1nc(-c2ccccn2)nc2c1CCCN2 [drawing 2637]
76 to 100 | O=C(COc1ccccc1)N1CCCc2c(O)nc(-c3ccccn3)nc21 [drawing 2638]
76 to 100 | COc1ccc(COCC(=O)N2CCCc3c(O)nc(-c4ccccn4)nc32)cc1 [drawing 2639]
1 to 25 | CN(CC(=O)N1CCCc2c(O)nc(-c3ccccn3)nc21)S(=O)(=O)c1ccccc1 [drawing 2641]
25 to 50 | CS(=O)(=O)N1CCCc2cc(C(=O)N3CCCc4c(O)nc(-c5ccccn5)nc43)ccc21 [drawing 2645]

Same assay, conditions: read-out: KRas G12D Q61H IC50

SMILES | IC50 [µM]
Cc1cccc(OCC(=O)Nc2nnc(-c3ccccn3)[nH]2)c1 [drawing 2555] | 5 to 10
O=c1nc(-c2ccccn2)[nH]c2c1sc1ccccc12 [drawing 2592] | 11 to 30
COc1ccc(COCC(=O)N2CCCc3c(O)nc(-c4ccccn4)nc32)cc1 [drawing 2639] | < 5

Same assay, conditions: serial dilution; read-out: KRas G12D Q61H (classes E-H, IC50)

IC50 [µM] | SMILES
5 to 10 | CS(=O)(=O)c1cccc(C(=O)N2CCCc3c(O)nc(-c4ccccn4)nc32)c1 [drawing 2647]
